Test results reported in patent publication US8143252B2, “Tetrahalogenated compounds useful as inhibitors of angiogenesis” (The United States of America as represented by the …, priority 2006, dated 2012).
Where two headings read alike, the source gives them in different places. Marks after values point to notes of the source that are not given here.

Experiments:
[1] = test system: rat aortic ring microvessel outgrowth; experiment: rat aortic ring microvessel assay; type: cell-based; conditions: for activity at 50 µM: Rattus norvegicus, 96 h, read-out: Average of Growth [%]
Experimental: The anti-angiogenic activity of the compounds was tested following the procedure described in Lepper, E. R., Ng, S. S., Gutschow, M., Weiss, M., Hauschildt, S., Hecker, T. K., Luzzio, F. A., Eger, K., Figg, W. D., J. Med. Chem. 2004, Comparative molecular field analysis and comparative molecular similarity indices analysis of thalidomide analogues as angiogenesis inhibitors; 47(9):2219-27. Twelve-well tissue culture-grade plates were covered with 250 μL Matrigel and allowed to gel for 30 to 45 minutes at 37° C., 5% CO2. Thoracic aortas were excised from 6- to 8-week-old male Sprague-Dawley rats, and the fibroadipose tissue was removed. The aortas were cut into 1 mm-long cross-sections and placed on the Matrigel coated wells. They were then covered with an additional 250 μL Matrigel and allowed to gel for 30 to 45 minutes at 37° C., 5% CO2. The rings were cultured for 24 hours in 1 mL EBM-2. After 24 hours, the medium was removed and replaced with 1 mL EBM-2 (Clonetics Corp.), supplemented with fetal bovine serum (2%), ascorbic acid, hydrocortisone, heparin, and amphotericin. Each selected compound was dissolved in DMSO and added to the EBM-2, before it was added to the well. Each selected compound was administered daily for four days at a daily dosage of 50 μM. Photos were taken on Day 5. DMSO alone was used as a control baseline. Carboxyamidotriazole (“CAI” from NCI, Bethesda, Md.) was used as a positive control. The vascular outgrowth was quantified using Adobe Photoshop (Adobe Systems, Inc., San Jose, Calif.) and the results are provided below in Tables 1 and 2.

[2] = test system: Human prostate cancer cell lines (PC3s); experiment: PC3 Proliferation Assay (hemocytometer count, trypan blue); type: cell-based; conditions: 24 hours, cell count normalized to DMSO control, concentration not given
Experimental: (§1) Human umbilical vein endothelial cells (HUVECs (Clonetics)) were maintained in EGM-II, supplemented with a Bullet-Kit (Clonetics). Human prostate cancer cell lines (PC3s (ATCC)) were maintained in RPMI-1640, supplemented with 10% fetal bovine serum. Both cell lines were incubated at 37° C., in a 5% CO2 atmosphere. Cells were seeded onto 12-well plates at a density of 30,000 cells/well and allowed to attach overnight at 37° C. and 5% CO2. The culture medium was then aspirated, and fresh culture medium containing either the vehicle (0.5% DMSO) or drug solution in 0.5% DMSO was added. After 24 hours, media was removed, then cells were trypsinized and counted with a hemocytometer, using trypan blue to exclude non-viable cells. Each compound was tested in triplicate and the cell count was normalized to the controls, to give the % growth. The results are shown below in Tables 3 and 4, and in FIGS. 5 and 6.

[3] = test system: HUVEC; experiment: HUVEC Proliferation Assay, CCK-8 counting; type: cell-based, human; conditions: 24 h incubation
Experimental: as §1
(§2) The experiments for the data in Table 5 was performed as described above, except that the Table 5 experiments were performed in […] (at two concentrations), and the CCK-8 Cell Counting Kit (Dajindo Technologies) was utilized after treating for 24 hours.

[4] = test system: PC3; experiment: PC3 Proliferation Assay, CCK-8 counting; type: cell-based, human; conditions: 24 h incubation
Experimental: as §1, §2

[5] = test system: Human umbilical vein endothelial cells (HUVECs); experiment: HUVEC Proliferation Assay (hemocytometer count, trypan blue); type: cell-based; conditions: 24 hours, cell count normalized to DMSO control, concentration not given
Experimental: as §1

[6] = test system: rat aortic ring microvessel outgrowth; conditions: 50 μM; data reported in Lepper et al., J. Med. Chem. 2004; cited from earlier work

Compound: CN1C(=O)NC(=O)C(C)(N2C(=O)c3c(F)c(F)c(F)c(F)c3C2=O)C1=O (racemic) [Compound 19a, 1,5-Dimethyl-5-(4,5,6,7-tetrafluoro-1,3-dihydro-1,3-dioxo-2H-isoindol-2-yl)-2,4,6-(1H,3H,5H)-pyrimidinetrione]
- activity at 50 µM [1]: 0.12%

Compound: CCCN1C(=O)NC(=O)C(C)(N2C(=O)c3c(F)c(F)c(F)c(F)c3C2=O)C1=O (racemic) [Compound 19b, 5-Methyl-1-propyl-5-(4,5,6,7-tetrafluoro-1,3-dihydro-1,3-dioxo-2H-isoindol-2-yl)-2,4,6(1H,3H,5H)-pyrimidinetrione]
- activity at 50 µM [1]: 0.13%
- Average of Growth [%] [2]: 1.50%

Compound: CC(C)N1C(=O)NC(=O)C(C)(N2C(=O)c3c(F)c(F)c(F)c(F)c3C2=O)C1=O (racemic) [Compound 19c, 1-Isopropyl-5-methyl-5-(4,5,6,7-tetrafluoro-1,3-dihydro-1,3-dioxo-2H-isoindol-2-yl)-2,4,6(1H,3H,5H)-pyrimidinetrione]
- activity at 50 µM [1]: 0.14%
- Average of Growth [%] [2]: 3.75%

Compound: CCN1C(=O)NC(=O)C(CC)(N2C(=O)c3c(F)c(F)c(F)c(F)c3C2=O)C1=O (racemic) [Compound 19d, 1,5-Diethyl-5-(4,5,6,7-tetrafluoro-1,3-dihydro-1,3-dioxo-2H-isoindol-2-yl)-2,4,6-(1H,3H,5H)-pyrimidinetrione]
- activity at 50 µM [1]: 0.13%

Compound: CCCN1C(=O)NC(=O)C(CC)(N2C(=O)c3c(F)c(F)c(F)c(F)c3C2=O)C1=O (racemic) [Compound 19e, 5-Ethyl-1-propyl-5-(4,5,6,7-tetrafluoro-1,3-dihydro-1,3-dioxo-2H-isoindol-2-yl)-2,4,6(1H,3H,5H)-pyrimidinetrione]
- activity at 50 µM [1]: 0.12%
- HUVEC Growth (5 uM) (Control = 100%) Mean [3]: 1.68%
- HUVEC Growth (10 uM) (Control = 100%) Mean [3]: 2.14%
- PC3 Growth (5 uM) (Control = 100%) Mean [4]: 31.02%
- PC3 Growth (10 uM) (Control = 100%) Mean [4]: 9.67%

Compound: CCN1C(=O)NC(=O)C(C)(N2C(=O)c3c(F)c(F)c(F)c(F)c3C2=O)C1=O (racemic) [Compound 19f, 1-Ethyl-5-methyl-5-(4,5,6,7-tetrafluoro-1,3-dihydro-1,3-dioxo-2H-isoindol-2-yl)-2,4,6(1H,3H,5H)-pyrimidinetrione]
- activity at 50 µM [1]: 23.8%
- HUVEC Growth (5 uM) (Control = 100%) Mean [3]: 27.17%
- HUVEC Growth (10 uM) (Control = 100%) Mean [3]: 9.00%
- PC3 Growth (5 uM) (Control = 100%) Mean [4]: 25.95%
- PC3 Growth (10 uM) (Control = 100%) Mean [4]: 10.94%

Compound: CCC1(N2C(=O)c3c(F)c(F)c(F)c(F)c3C2=O)C(=O)NC(=O)N(C(C)C)C1=O (racemic) [Compound 19g, 5-Ethyl-1-isopropyl-5-(4,5,6,7-tetrafluoro-1,3-dihydro-1,3-dioxo-2H-isoindol-2-yl)-2,4,6(1H,3H,5H)-pyrimidinetrione]
- activity at 50 µM [1]: 0.13%
- Average of Growth [%] [2]: 1.50%

Compound: CC1(N2C(=O)c3c(F)c(F)c(F)c(F)c3C2=O)C(=O)NC(=O)N(C2CCCCC2)C1=O (racemic) [Compound 19h, 1-Cyclohexyl-5-methyl-5-(4,5,6,7-tetrafluoro-1,3-dihydro-1,3-dioxo-2H-isoindol-2-yl)-2,4,6(1H,3H,5H)-pyrimidinetrione]
- activity at 50 µM [1]: 11.8%

Compound: CCC1(N2C(=O)c3c(F)c(F)c(F)c(F)c3C2=O)C(=O)NC(=O)N(C2CCCCC2)C1=O (racemic) [Compound 19i, 1-Cyclohexyl-5-ethyl-5-(4,5,6,7-tetrafluoro-1,3-dihydro-1,3-dioxo-2H-isoindol-2-yl)-2,4,6(1H,3H,5H)-pyrimidinetrione]
- activity at 50 µM [1]: 11.2%

Compound: CN1C(=O)NC(=O)C(C)(NC(=O)c2cc(F)c(F)c(F)c2F)C1=O (racemic) [Compound 20a, N-(Hexahydro-1,5-dimethyl-2,4,6-trioxo-5-pyrimidinyl)-2,3,4,5-tetrafluorobenzamide]
- activity at 50 µM [1]: 58.3%

Compound: CCCN1C(=O)NC(=O)C(C)(NC(=O)c2cc(F)c(F)c(F)c2F)C1=O (racemic) [Compound 20b, N-(Hexahydro-5-methyl-2,4,6-trioxo-1-propyl-5-pyrimidinyl)-2,3,4,5-tetrafluorobenzamide]
- activity at 50 µM [1]: 23.1%

Compound: CC(C)N1C(=O)NC(=O)C(C)(NC(=O)c2cc(F)c(F)c(F)c2F)C1=O (racemic) [Compound 20c, N-(Hexahydro-1-isopropyl-5-methyl-2,4,6-trioxo-5-pyrimidinyl)-2,3,4,5-tetrafluorobenzamide]
- activity at 50 µM [1]: 5.63%

Compound: CCN1C(=O)NC(=O)C(CC)(NC(=O)c2cc(F)c(F)c(F)c2F)C1=O (racemic) [Compound 20d, N-(1,5-Diethyl-hexahydro-2,4,6-trioxo-5-pyrimidinyl)-2,3,4,5-tetrafluorobenzamide]
- activity at 50 µM [1]: 31.1%
- HUVEC Growth (5 uM) (Control = 100%) Mean [3]: 11.46%
- HUVEC Growth (10 uM) (Control = 100%) Mean [3]: 14.53%
- PC3 Growth (10 uM) (Control = 100%) Mean [4]: 87.73%

Compound: CCCN1C(=O)NC(=O)C(CC)(NC(=O)c2cc(F)c(F)c(F)c2F)C1=O (racemic) [Compound 20e, N-(5-Ethyl-hexahydro-2,4,6-trioxo-1-propyl-5-pyrimidinyl)-2,3,4,5-tetrafluorobenzamide]
- activity at 50 µM [1]: 0.19%
- Average of Growth [%] [5]: 24.05%
- Average of Growth [%] [2]: 26.27%

Compound: CCN1C(=O)NC(=O)C(C)(NC(=O)c2cc(F)c(F)c(F)c2F)C1=O (racemic) [Compound 20f, N-(1-Ethyl-hexahydro-5-methyl-2,4,6-trioxo-5-pyrimidinyl)-2,3,4,5-tetrafluorobenzamide]
- activity at 50 µM [1]: 16.8%

Compound: CCC1(NC(=O)c2cc(F)c(F)c(F)c2F)C(=O)NC(=O)N(C(C)C)C1=O (racemic) [Compound 20g, N-(5-Ethyl-hexahydro-1-isopropyl-2,4,6-trioxo-5-pyrimidinyl)-2,3,4,5-tetrafluorobenzamide]
- activity at 50 µM [1]: 0.1%
- Average of Growth [%] [5]: 62.03%
- Average of Growth [%] [2]: 38.46%

Compound: CC1(NC(=O)c2cc(F)c(F)c(F)c2F)C(=O)NC(=O)N(C2CCCCC2)C1=O (racemic) [Compound 20h, N-(1-Cyclohexyl-hexahydro-5-methyl-2,4,6-trioxo-5-pyrimidinyl)-2,3,4,5-tetrafluorobenzamide]
- activity at 50 µM [1]: 16.5%
- Average of Growth [%] [5]: 91.14%
- Average of Growth [%] [2]: 34.52%

Compound: CCC1(NC(=O)c2cc(F)c(F)c(F)c2F)C(=O)NC(=O)N(C2CCCCC2)C1=O (racemic) [Compound 20i, N-(1-Cyclohexyl-5-ethyl-hexahydro-2,4,6-trioxo-5-pyrimidinyl)-2,3,4,5-tetrafluorobenzamide]
- activity at 50 µM [1]: 9.73%

Compound: CCC1(NC(=O)c2cc(F)c(F)c(F)c2F)C(=O)NC(=O)N(c2ccccc2)C1=O (racemic) [Compound 20k, N-(5-Ethyl-hexahydro-2,4,6-trioxo-1-phenyl-5-pyrimidinyl)-2,3,4,5-tetrafluorobenzamide]
- activity at 50 µM [1]: 18.1%

Compound: NC(=O)c1nnn(Cc2cc(Cl)c(C(=O)c3ccc(Cl)cc3)c(Cl)c2)c1N [CAI, Carboxyamidotriazole, reference compound]
- activity at 50 µM ([1]; phthalimides 19, 50 μM daily for four days, DMSO control = 100): 4.03%
- Average of Growth [%] ([1]; tetrafluorobenzamides 20, 50 μM daily for four days, DMSO control = 100): 4.03%

Compound: CCC1(N2C(=O)c3c(F)c(F)c(F)c(F)c3C2=O)C(=O)NC(=O)N(c2ccccc2)C1=O (stereo not drawn) [Compound 19k]
- Average of Growth [%] [6]: 24.25^[a] %
